# Measured values taken from article PMC9232501, “Results of the phase I CCTG IND.231 trial of CX-5461 in patients with advanced solid tumors enriched for DNA-repair deficiencies” (Nature Communications, 2022).
# Values joined by “and” are separate entries in the source; they are usually repeats but may differ in a detail not shown here. Identical values can stand only once. “Also recorded” adds a separate entry of the source.
# Columns and labels:
# [1] = system: γ-H2AX (double-stranded DNA breaks); assay: γ-H2AX immunofluorescent staining with and without UVA radiation; assay type: cell-based; conditions: CX5461 10^-8M, 5x10-8M; PDS 20 x 10^-6M
# Experimental: (§1) Human epidermal keratinocytes (HEKa) cells were sourced from Thermo Fisher Scientific, and were grown in EpiLife™ Medium with HKGS. HAP WT and XPA knockout cell lines (Horizon Discovery) were cultured in IMDM, 10% FCS. Human HCT116 cells, U2OS cells (ATCC) were grown in McCoy’s 5 A medium with 10% FBS and L-glutamine. All cell lines are mycoplasma free and have been authenticated by STR or SNP profiling. CX-5461 was provided by Senhwa Biosciences, Inc. PDS is from Sigma-Aldrich, BRACO-19 from Alfa Chemistry, PhENDC3 is from Sigma-Aldrich, γ -H2AX antibody from Abcam (1:1000 for IF) and CPD antibody (1:1500) from Cosmo Bio Ltd. (Catalog number: CAC-NM-DAD-001). The WST-1 assay was performed as previously described, γ H2AX foci staining was performed as previously described. Immunofluorescence staining of CPD was performed according to the protocol from the manufacturer (Cosmo Bio Ltd).
# Supplementary Figures and Tables
# Supplementary Figure 1. UVA radiation increased double-stranded DNA breaks and ROS.
# Representative pictures of g -H2AX immunofluorescent staining with and without UVA radiation, for […]
# condition, quantified in (b) Quantile and mean intensity of g-H2AX level per cell, vertical axis. UV and drug factor conditions, horizontal axis. […] Number of cells as in Figure 5 g (c) The ratio of ROS level measured after UVA irradiation versus before UVA irradiation was calculated. […]
# WT HAP1 cells = assay: HAP1 WT cytotoxicity (WST-1 assay) with and without UVA; assay type: cell-based; conditions: for WST-1 raw signal (Figure 5h): replicates
# Experimental: Fig. 5 Comparison of G4 ligand photosensitization. […] Vertical axis, fractional survival, horizontal axis log10 drug concentration (M) (f) Representative images of CPD immunofluorescent staining under UV and drug treatment conditions for U2OS cells, quantified from biological duplicates in (g) (h) Scale bar = 100um. U2OS cells were treated with drug or vehicle control, then immediately irradiated with UVA 125 mJ/cm^2; and fixed 1 h later for immunofluorescence staining with CPD antibody. g Distribution of mean intensity of CPD level per cell (total n = in labels), with two biological repeats per condition. Vertical axis, mean CPD intensity per cell, horizontal axis, conditions (h) WT or KO XPA HAP1 cells assayed for cytotoxicity. Vertical axis, fractional survival (WST-1 assay). The horizontal axis, log10 drug concentration (M). Error bars = standard deviation of the mean. Three biological repeats per condition.
# as §1
smiles,measurement,setting,value
Cc1cnc(CNC(=O)c2c(=O)c3ccc(N4CCCN(C)CC4)nc3n3c2sc2ccccc23)cn1 [CX-5461],DNA damage (γ-H2AX) in the presence of UVA,[1],synergistically increased; also recorded: markedly increased
same,WST-1 raw signal (Figure 5h),"WT HAP1 cells; conc 1.00E-07, 125 mJ/cm2 WT",0.124 and 0.1238
same,WST-1 raw signal (Figure 5h),"WT HAP1 cells; conc 1.00E-07, WT No UV",0.1248 and 0.1255
same,WST-1 raw signal (Figure 5h),"WT HAP1 cells; conc 1.25E-08, 125 mJ/cm2 WT",0.124 and 0.1239
same,WST-1 raw signal (Figure 5h),"WT HAP1 cells; conc 1.25E-08, WT No UV",2.9461 and 2.8715
same,WST-1 raw signal (Figure 5h),"WT HAP1 cells; conc 1.56E-09, 125 mJ/cm2 WT",1.6148 and 1.5014
same,WST-1 raw signal (Figure 5h),"WT HAP1 cells; conc 1.56E-09, WT No UV",3.4383 and 3.4235
same,WST-1 raw signal (Figure 5h),"WT HAP1 cells; conc 2.00E-07, 125 mJ/cm2 WT",0.1302 and 0.1263
same,WST-1 raw signal (Figure 5h),"WT HAP1 cells; conc 2.00E-07, WT No UV",0.1284 and 0.1271
same,WST-1 raw signal (Figure 5h),"WT HAP1 cells; conc 2.50E-08, 125 mJ/cm2 WT",0.1237 and 0.1243
same,WST-1 raw signal (Figure 5h),"WT HAP1 cells; conc 2.50E-08, WT No UV",0.7915 and 0.7888
same,WST-1 raw signal (Figure 5h),"WT HAP1 cells; conc 3.13E-09, 125 mJ/cm2 WT",0.139 and 0.1466
same,WST-1 raw signal (Figure 5h),"WT HAP1 cells; conc 3.13E-09, WT No UV",3.3417 and 3.4651
same,WST-1 raw signal (Figure 5h),"WT HAP1 cells; conc 3.91E-10, 125 mJ/cm2 WT",3.3908 and 3.3132
same,WST-1 raw signal (Figure 5h),"WT HAP1 cells; conc 3.91E-10, WT No UV",3.3655 and 3.4278
same,WST-1 raw signal (Figure 5h),"WT HAP1 cells; conc 5.00E-08, 125 mJ/cm2 WT",0.1258 and 0.124
same,WST-1 raw signal (Figure 5h),"WT HAP1 cells; conc 5.00E-08, WT No UV",0.1245 and 0.1268
same,WST-1 raw signal (Figure 5h),"WT HAP1 cells; conc 6.25E-09, 125 mJ/cm2 WT",0.1242 and 0.126
same,WST-1 raw signal (Figure 5h),"WT HAP1 cells; conc 6.25E-09, WT No UV",3.3238 and 3.2658
same,WST-1 raw signal (Figure 5h),"WT HAP1 cells; conc 7.81E-10, 125 mJ/cm2 WT",3.145 and 2.7907
same,WST-1 raw signal (Figure 5h),"WT HAP1 cells; conc 7.81E-10, WT No UV",3.4055 and 3.3833
same,effect of UVA radiation on cytotoxicity,WT HAP1 cells; with UVA,dramatically increased the cytotoxicity
